Reference: patent US20120190687A1, “Pyrazinylpyrazoles” (Bayer CropScience Ag, priority 2009, published 2012)

How the values were obtained:
[1] = logP by reversed-phase HPLC (EEC Directive 79/831 Annex V.A8); format: physicochemical; conditions: * LC-MS, acidic range, pH 2.7, 0.1% aqueous formic acid / acetonitrile
Text: [table] The calibration is effected with unbranched alkan-2-ones (having 3 to 16 carbon atoms) with known log P values (log P values determined on the basis of the retention times by linear interpolation between two successive alkanones).

[2] = system: Boophilus microplus females of the SP-resistant Parkhurst strain; assay: Boophilus microplus (dip); format: in vivo; conditions: 100 ppm, after 7 days, laying of fertile eggs
Procedure: Boophilus microplus (dip)
Test animals: adult engorged Boophilus microplus females of the SP-resistant Parkhurst strain
Solvent: Dimethyl Sulphoxide
10 mg of active ingredient are dissolved in 0.5 ml of dimethyl sulphoxide. For the purpose of preparing a suitable formulation, the active ingredient solution is diluted with water to the concentration desired in each case. This active ingredient preparation is pipetted into tubes. 8-10 ticks are transferred into a further tube with holes. The tube is immersed into the active ingredient formulation, and all ticks are completely wetted. After the liquid has run out, the ticks are transferred onto filter discs in plastic dishes and stored in a climate-controlled room. The activity is assessed after 7 days by laying of fertile eggs. Eggs whose fertility is not outwardly visible are stored in glass tubes in a climate-controlled cabinet until the larvae hatch. Efficacy of 100% means that none of the ticks has laid any fertile eggs.

[3] = system: Boophilus microplus; assay: Boophilus microplus test (BOOPMI injection); format: in vivo; conditions: 20 μg/animal, injection into abdomen, after 7 days, laying of fertile eggs
Procedure: Boophilus microplus Test (BOOPMI Injection) Solvent: Dimethyl Sulphoxide To prepare an appropriate active ingredient formulation, 10 mg of active ingredient are mixed with 0.5 ml of solvent and the concentrate is diluted with solvent to the desired concentration. The active ingredient solution is injected into the abdomen (Boophilus microplus), and the animals are transferred into dishes and stored in a climate-controlled room. The efficacy is assessed by laying of fertile eggs. After 7 days, the efficacy in % is determined. 100% means that none of the ticks has laid any fertile eggs.

[4] = system: Lucilia cuprina larvae; assay: Lucilia cuprina test (LUCICU); format: in vivo; conditions: 100 ppm, treated horse meat, after 2 days
Procedure: (§1) Lucilia cuprina Test (LUCICU) Solvent: Dimethyl Sulphoxide To prepare an appropriate active ingredient formulation, 10 mg of active ingredient are mixed with 0.5 ml of dimethyl sulphoxide and the concentrate is diluted with water to the desired concentration. Vessels containing horse meat treated with the active ingredient preparation of the desired concentration are populated with about 20 Lucilia cuprina larvae. After 2 days, the kill in % is determined. 100% means that all of the larvae have been killed; 0% means that none of the larvae have been killed.

[5] = system: Myzus persicae; assay: Myzus test (MYZUPE spray treatment); format: in vivo; conditions: 500 g/ha, Chinese cabbage discs, after 6 days
Procedure: Myzus test (MYZUPE Spray Treatment) Solvent: 78 parts by weight of acetone • • 1.5 parts by weight of dimethylformamide Emulsifier: 0.5 part by weight of alkylaryl polyglycol ether To prepare an appropriate active ingredient preparation, 1 part by weight of active ingredient is mixed with the stated amounts of solvent and emulsifier, and the concentrate is diluted with emulsifier-containing water to the desired concentration. Discs of Chinese cabbage (Brassica pekinensis) infested by all stages of the green peach aphid (Myzus persicae) are sprayed with an active ingredient preparation of the desired concentration. After 6 days, the efficacy in % is determined. 100% means that all of the aphids have been destroyed; 0% means that none of the aphids have been destroyed.

[6] = system: Ctenocephalides felis; assay: Ctenocephalides felis test (CTECFE); format: in vivo; conditions: 100 ppm in citrated cow's blood, after 2 days
Procedure: Ctenocephalides felis Test ([…]) Solvent: 1 Part by Weight of Dimethyl Sulphoxide For the purpose of preparing an appropriate active ingredient formulation, 10 mg of active ingredient are mixed with 0.5 ml of dimethyl sulphoxide. A portion of the concentrate is diluted with citrated cow's blood and the desired concentration is established. About 20 unfed adult fleas (Ctenocephalides felis) are introduced into a chamber closed at the top and bottom with gauze. A metal cylinder, the bottom of which is closed with Parafilm, is placed onto the chamber. The cylinder contains the blood/active ingredient preparation, which can be imbibed by the fleas through the Parafilm membrane. After 2 days, the kill in % is determined. 100% means that all fleas have been killed; 0% means that none of the fleas have been killed.

[7] = system: Musca domestica; assay: Musca domestica test; format: in vivo; conditions: after 2 days
Procedure: as §1, with “Musca domestica” for “Lucilia cuprina”, “Test” for “Test (LUCICU)”, “a sponge” for “horse meat”, “adult Musca domestica.” for “about 20 Lucilia cuprina larvae.”, “flies” for “larvae”

[8] = system: Phaedon cochleariae; assay: Phaedon test (PHAECO spray treatment); format: in vivo; conditions: 500 g/ha, Chinese cabbage discs, after 7 days
Procedure: Phaedon Test ([…] Spray Treatment) Solvent: 78.0 parts by weight of acetone • • 1.5 parts by weight of dimethylformamide Emulsifier: 0.5 part by weight of alkylaryl polyglycol ether To prepare an appropriate active ingredient preparation, 1 part by weight of active ingredient is mixed with the stated amounts of solvent and emulsifier, and the concentrate is diluted with emulsifier-containing water to the desired concentration. Discs of Chinese cabbage (Brassica pekinensis) are sprayed with an active ingredient preparation of the desired concentration and, after drying, populated with larvae of the mustard beetle (Phaedon cochleariae). After 7 days, the efficacy in % is determined. 100% means that all beetle larvae have been killed; 0% means that none of the beetle larvae have been killed.

[9] = system: Spodoptera frugiperda; assay: Spodoptera frugiperda test (SPODFR spray treatment); format: in vivo; conditions: 500 g/ha, maize leaf discs, after 7 days
Procedure: Spodoptera frugiperda Test (SPODFR Spray Treatment) Solvent: 78.0 parts by weight of acetone • • 1.5 parts by weight of dimethylformamide Emulsifier: 0.5 part by weight of alkylaryl polyglycol ether To prepare an appropriate active ingredient preparation, 1 part by weight of active ingredient is mixed with the stated amounts of solvent and emulsifier, and the concentrate is diluted with emulsifier-containing water to the desired concentration. Discs of maize leaves (Zea mays) are sprayed with an active ingredient preparation of the desired concentration and, after drying, populated with caterpillars of the armyworm (Spodoptera frugiperda). After 7 days, the efficacy in % is determined. 100% means that all caterpillars have been killed; 0% means that none of the caterpillars have been killed.

[10] = system: Tetranychus urticae; assay: Tetranychus test, OP-resistant (TETRUR spray treatment); format: in vivo; conditions: bean leaf discs, after 6 days
Procedure: Tetranychus Test, OP-resistant (TETRUR Spray Treatment)
Solvent: 78.0 parts by weight of acetone • • 1.5 parts by weight of dimethylformamide
Emulsifier: 0.5 part by weight of alkylaryl polyglycol ether
To prepare an appropriate active ingredient preparation, 1 part by weight of active ingredient is mixed with the stated amounts of solvent and emulsifier, and the concentrate is diluted with emulsifier-containing water to the desired concentration. Discs of bean leaves (Phaseolus vulgaris) infested by all stages of the red spider mite (Tetranychus urticae) are sprayed with an active ingredient preparation of the desired concentration. After 6 days, the efficacy in % is determined. 100% means that all spider mites have been killed; 0% means that none of the spider mites have been killed.

Row | Compound | log P [1] | chromatographic logP ([1]; reversed-phase HPLC column, read-out: log P) | efficacy [2] | efficacy [3] | efficacy (kill) [4] | efficacy [5] | efficacy (kill) [6] | efficacy (kill) ([7]; 100 ppm) | efficacy [8] | efficacy [9] | efficacy ([10]; 500 g/ha) | efficacy (kill) ([7]; 20 ppm) | efficacy ([10]; 100 g/ha)
1 | C=Cc1nn(-c2nccnc2OC)c(N)c1-c1cc(Cl)cc(Cl)c1 [Ex. 8] | 3.51* | – | 90% | 100% | 100% | 100% | – | – | – | – | – | – | –
2 | COc1nccnc1-n1nc(C(F)(F)C(F)(F)F)c(-c2cc(Cl)cc(C(F)(F)F)c2)c1N [Ex. 15] | 4.58* | – | 100% | 100% | 100% | 100% | 95% | 95% | 100% | 100% | 100% | – | –
3 | COc1nccnc1-n1nc(C(F)(F)C(F)(F)OC)c(-c2cc(Cl)cc(C(F)(F)F)c2)c1N [Ex. 47] | 3.98* | – | 100% | 100% | 100% | 80% | 100% | 80% | 100% | 100% | 100% | – | –
4 | COc1cc(-c2c(C(F)(F)F)nn(-c3nccnc3OC)c2N)cc(C(F)(F)F)c1 [compound 26, 1-(3-methoxypyrazin-2-yl)-4-[3-methoxy-5-(trifluoromethyl)phenyl]-3-(trifluoromethyl)-1H-pyrazol-5-amine] | – | 3.63 | 90% | 100% | 100% | – | 95% | – | 100% | 83% | 100% | – | –

Further lines, with some results ahead:

Row | log P [1] | chromatographic logP ([1]; reversed-phase HPLC column, read-out: log P) | Compound | efficacy [2] | efficacy [3] | efficacy (kill) [4] | efficacy [5] | efficacy (kill) [6] | efficacy (kill) ([7]; 100 ppm) | efficacy [8] | efficacy [9] | efficacy ([10]; 500 g/ha) | efficacy (kill) ([7]; 20 ppm) | efficacy ([10]; 100 g/ha)
5 | 4.24* | – | COc1nccnc1-n1nc(C(F)(F)Cl)c(-c2cc(Cl)cc(C(F)(F)F)c2)c1N [Ex. 17] | 100% | 100% | 100% | 100% | 100% | 100% | 100% | 100% | 100% | – | –
6 | 3.94* | – | COc1nccnc1-n1nc(C(F)(F)F)c(-c2ccc(Cl)c(C(F)(F)F)c2)c1N [Ex. 18] | 100% | 100% | 100% | 90% | – | – | 100% | 83% | 100% | – | –
7 | 3.74* | – | COc1nccnc1-n1nc(C(C)(F)F)c(-c2ccc(Cl)c(C(F)(F)F)c2)c1N [Ex. 20] | 100% | 100% | 100% | 100% | – | – | 100% | 100% | 100% | – | –
8 | 3.09* | – | COc1nccnc1-n1nc(C(F)(F)F)c(-c2cc(Br)c3c(c2)OCCO3)c1N [Ex. 132] | 100% | 100% | 100% | – | 100% | 80% | 100% | 100% | 80% | – | –
9 | 3.02* | – | COc1nccnc1-n1nc(C(F)(F)F)c(-c2cc(Cl)c3c(c2)OCCO3)c1N [Ex. 133] | 95% | 100% | 100% | – | 100% | – | 100% | 100% | – | 80% | 90%
